# Where two headings read alike, the source gives them in different places. Where a SMILES comes first, the peptide text is derived from it. Bridges are numbered along the chain shown (N, C = ends). [ ]: non-standard residue; d: D form. Trp(6-Cl) = N[C@@H](Cc1c[nH]c2cc(Cl)ccc12)C(=O)O; Phe(4-COOH) = N[C@@H](Cc1ccc(C(=O)O)cc1)C(=O)O; R8 = C=CCCCCCC[C@@](C)(N)C(=O)O; Cha = N[C@@H](CC1CCCCC1)C(=O)O; Cba = N[C@@H](CC1CCC1)C(=O)O; Chg = N[C@H](C(=O)O)C1CCCCC1; hLeu = CC(C)CC[C@H](N)C(=O)O; S5 = C=CCCC[C@](C)(N)C(=O)O; Nle = CCCC[C@H](N)C(=O)O; Ac3c = NC1(C(=O)O)CC1; Aib = CC(C)(N)C(=O)O
# Key:
# MDMX = biological target: T1, MDMX (Homo sapiens, UniProt O15151); assay: Competitive fluorescence polarization assay for MDMX; type: binding; conditions: competitive FP assay; for IC50: read-out: IC50 (MDMX)
# T1 sequence (O15151 1-125): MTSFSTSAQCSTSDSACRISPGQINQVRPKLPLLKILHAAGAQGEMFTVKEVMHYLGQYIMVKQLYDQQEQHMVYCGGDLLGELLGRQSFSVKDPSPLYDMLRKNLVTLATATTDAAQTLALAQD
# MDM2 = MDM2 (Homo sapiens, UniProt Q00987); assay: Competitive fluorescence polarization assay for MDM2; type: binding; conditions: competitive FP assay, MDM2; for IC50: read-out: IC50 (MDM2)
# MDM2, sequence (Q00987 1-125): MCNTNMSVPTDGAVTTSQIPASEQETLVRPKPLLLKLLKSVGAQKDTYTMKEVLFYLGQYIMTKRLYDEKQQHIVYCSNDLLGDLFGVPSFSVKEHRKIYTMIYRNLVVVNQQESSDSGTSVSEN
# Protocol: Dilute 1 mM (in 100% DMSO) of FAM labeled linear peptide with DMSO to 100 μM (dilution 1:10). Then, dilute from 100 μM to 10 μM with water (dilution 1:10) and then dilute with FP buffer from 10 μM to 40 nM (dilution 1:250). This is the working solution which will be a 10 nM concentration in well (dilution 1:4). […] Then, dilute from 5 mM to 500 μM with H2O (dilution 1:10) and then dilute with FP buffer from 500 μM to 20 μM (dilution 1:25).
# Dilute 1 mM (in 100% DMSO) of FAM labeled linear peptide with DMSO to 100 μM (dilution 1:10). Then, dilute from 100 μM to 10 μM with water (dilution 1:10) and then dilute with FP buffer from 10 μM to 40 nM (dilution 1:250). This is the working solution which will be a 10 nM concentration in well (dilution 1:4). […] Dilute 10 mM (in 100% DMSO) with DMSO to 5 mM (dilution 1:2). Then, dilute from 5 mM to 500 μM with H2O (dilution 1:10) and then dilute with FP buffer from 500 μM to 20 μM (dilution 1:25). […] Transfer 10 μl of serial diluted unlabeled peptides to each well which is filled with 20 μl of 300 nM of protein. • 7. Add 10 μl of 10 nM (4×) of FAM labeled peptide into each well and incubate for 3 hr to read.
IC50 (MDMX),Ki (MDMX; read-out: Ki (MDMX)),IC50 (MDM2),Ki (MDM2; read-out: Ki (MDM2)),Structure (SMILES),Ki (MDMX; Ki (MDMX)),Ki (MDM2; Ki (MDM2))
100 to 1000 nM,10 to 100 nM,100 to 1000 nM,10 to 100 nM,CC(=O)N[C@@H](Cc1ccccc1)C(=O)N[C@]1(C)CCCCCCC=CCCC[C@@](C)(C(=O)N[C@@H](CCCNC(=N)N)C(=O)N[C@@H](CCCNC(=N)N)C(=O)N[C@@H](CC(=O)O)C(=O)N[C@@H](CC2CCCCC2)C(N)=O)NC(=O)[C@H](CC(C)C)NC(=O)[C@H](CCC(N)=O)NC(=O)[C@H](Cc2c[nH]cn2)NC(=O)[C@H](Cc2c[nH]c3ccccc23)NC(=O)[C@H](Cc2c[nH]cn2)NC(=O)[C@H](Cc2c[nH]cn2)NC1=O [compound 30] (Ac-F[R8]HHWHQL[S5]RRD[Cha]-NH2; staple 2-9),–,–
> 1000 nM,100 to 1000 nM,10 to 100 nM,10 to 100 nM,CCCC[C@H](NC(=O)[C@H](C)NC(=O)[C@H](C)NC(=O)[C@]1(C)CCCC=CCCCCCC[C@@](C)(NC(=O)[C@H](Cc2ccccc2)NC(=O)[C@@H](NC(=O)[C@H](CC(C)C)NC(C)=O)[C@@H](C)O)C(=O)N[C@@H](C)C(=O)N[C@@H](Cc2ccc(O)cc2)C(=O)N[C@@H](Cc2c[nH]c3ccccc23)C(=O)N[C@@H](C)C(=O)N[C@@H](CCC(N)=O)C(=O)N[C@@H](CCC(C)C)C(=O)N1)C(=O)N[C@@H](C)C(=O)N[C@@H](C)C(N)=O [compound 323],–,–
< 10 nM,< 10 nM,< 10 nM,< 10 nM,"CCCC[C@H](NC(=O)[C@H](C)NC(=O)[C@H](C)NC(=O)[C@]1(C)CCCC=CCCCCCC[C@@](C)(NC(=O)[C@H](Cc2ccccc2)NC(=O)[C@@H](NC(=O)[C@H](CC(C)C)NC(C)=O)[C@@H](C)O)C(=O)N[C@@H](C)C(=O)N[C@@H](Cc2ccc(O)cc2)C(=O)N[C@@H](Cc2c[nH]c3ccccc23)C(=O)N[C@@H](C)C(=O)N[C@@H](CCC(N)=O)C(=O)N[C@@H](CC(C)C)C(=O)N1)C(=O)N[C@@H](C)C(=O)N(C)CC(N)=O (single isomer, unassigned) [compound 410]",–,–
–,–,–,–,CC(=O)N[C@@H](CCCNC(=N)N)C(=O)N[C@H](C(=O)N[C@@H](Cc1ccccc1)C(=O)N[C@]1(C)CCCCCCC=CCCC[C@@](C)(C(=O)N[C@@H](C)C(=O)N[C@@H](C)C(=O)N[C@@H](C)C(=O)N[C@@H](C)C(=O)N[C@@H](C)C(=O)N[C@H](C)C(N)=O)NC(=O)[C@H](CC(C)C)NC(=O)[C@H](CCC(N)=O)NC(=O)[C@H](C)NC(=O)[C@H](Cc2c[nH]c3ccccc23)NC(=O)[C@H](Cc2ccc(O)cc2)NC(=O)[C@H](CCC(=O)O)NC1=O)[C@@H](C)O [compound 559] (Ac-RTF[R8]EYWAQL[S5]AAAAA[dA]-NH2; staple 4-11),10 to 100 nM,10 to 100 nM
> 1000 nM,–,100 to 1000 nM,–,CC(=O)N[C@@H](C(=O)N[C@H](C)C(=O)N[C@H](Cc1c[nH]c2ccccc12)C(=O)N[C@H](Cc1ccc(O)cc1)C(=O)N[C@H](C)C(=O)N[C@]1(C)CCCC=CCCC[C@](C)(C(=O)N[C@H](CC(C)C)C(=O)N[C@H](CCCNC(=N)N)C(N)=O)NC(=O)[C@@H](CCCCN)NC(=O)[C@@H](CCC(=O)O)NC(=O)[C@@H](Cc2ccc(C(F)(F)F)cc2)NC1=O)[C@H](C)O [compound 754],–,–
100 to 1000 nM,10 to 100 nM,100 to 1000 nM,10 to 100 nM,"CCCC[C@H](NC(=O)[C@H](C)NC(=O)[C@H](C)NC(=O)[C@]1(C)CCCC=CCCCCCC[C@@](C)(NC(=O)[C@H](Cc2ccc(F)c(F)c2)NC(=O)[C@@H](NC(=O)[C@H](CC(C)C)NC(C)=O)[C@@H](C)O)C(=O)N[C@@H](C)C(=O)N[C@@H](Cc2ccc(O)cc2)C(=O)N[C@@H](Cc2c[nH]c3ccccc23)C(=O)N[C@@H](C)C(=O)N[C@@H](CCC(N)=O)C(=O)N[C@@H](CCC(C)C)C(=O)N1)C(=O)N[C@@H](C)C(N)=O (single isomer, unassigned) [compound 308]",–,–
10 to 100 nM,10 to 100 nM,10 to 100 nM,< 10 nM,CCCC[C@H](NC(=O)[C@H](C)NC(=O)[C@H](C)NC(=O)[C@]1(C)CCCC=CCCCCCC[C@@](C)(NC(=O)[C@H](Cc2ccccc2)NC(=O)[C@@H](NC(=O)[C@H](CC(C)C)NC(C)=O)[C@@H](C)O)C(=O)N[C@@H](CCC(=O)O)C(=O)N[C@@H](Cc2ccc(O)cc2)C(=O)N[C@@H](Cc2c[nH]c3ccccc23)C(=O)N[C@@H](C)C(=O)N[C@@H](CCC(N)=O)C(=O)N[C@@H](CCC(C)C)C(=O)N1)C(=O)N[C@@H](C)C(=O)N[C@@H](C)C(N)=O [compound 381] (Ac-LTF[R8]EYWAQ[hLeu][S5]AA[Nle]AA-NH2; staple 4-11),–,–
10 to 100 nM,< 10 nM,10 to 100 nM,< 10 nM,CC[C@H](C)[C@H](NC(=O)[C@H](C)NC(=O)[C@H](C)NC(=O)[C@]1(C)CCCC=CCCCCCC[C@@](C)(NC(=O)[C@H](Cc2ccccc2)NC(=O)[C@@H](NC(=O)[C@H](CC(C)C)NC(C)=O)[C@@H](C)O)C(=O)N[C@@H](C)C(=O)N[C@@H](Cc2ccc(C(=O)O)cc2)C(=O)N[C@@H](Cc2c[nH]c3ccccc23)C(=O)N[C@@H](C)C(=O)N[C@@H](CCC(N)=O)C(=O)N[C@@H](CC2CCC2)C(=O)N1)C(=O)N[C@H](C)C(N)=O [compound 267] (Ac-LTF[R8]A[Phe(4-COOH)]WAQ[Cba][S5]AAI[dA]-NH2; staple 4-11),–,–
10 to 100 nM,< 10 nM,10 to 100 nM,< 10 nM,CCCC[C@H](NC(=O)[C@H](Cc1c[nH]c2ccccc12)NC(=O)[C@H](C)NC(=O)[C@]1(C)CCCC=CCCCCCC[C@@](C)(NC(=O)[C@H](Cc2ccccc2)NC(=O)[C@@H](NC(=O)[C@H](CCC(=O)O)NC(C)=O)[C@@H](C)O)C(=O)N[C@@H](CCC(=O)O)C(=O)N[C@@H](Cc2ccc(O)cc2)C(=O)N[C@@H](Cc2c[nH]c3ccccc23)C(=O)N[C@@H](C)C(=O)N[C@@H](CCC(N)=O)C(=O)N[C@@H](CC(C)C)C(=O)N1)C(=O)N[C@H](C)C(N)=O [compound 278] (Ac-ETF[R8]EYWAQL[S5]AW[Nle][dA]-NH2; staple 4-11),–,–
10 to 100 nM,10 to 100 nM,10 to 100 nM,< 10 nM,CC(=O)N[C@@H](CC(=O)O)C(=O)N[C@@H](CC(C)C)C(=O)N[C@H](C(=O)N[C@@H](Cc1ccccc1)C(=O)N[C@]1(C)CCCCCCC=CCCC[C@@](C)(C(=O)N[C@@H](CCCNC(=N)N)C(=O)N[C@@H](CCCNC(=N)N)C(=O)N[C@@H](CC(C)C)C(=O)N[C@H](C(N)=O)C(C)C)NC(=O)[C@H](CC(C)C)NC(=O)[C@H](CCC(N)=O)NC(=O)[C@H](Cc2c[nH]cn2)NC(=O)[C@H](Cc2c[nH]c3ccccc23)NC(=O)[C@H](Cc2c[nH]cn2)NC(=O)[C@H](Cc2c[nH]cn2)NC1=O)[C@@H](C)O [compound 28] (Ac-DLTF[R8]HHWHQL[S5]RRLV-NH2; staple 5-12),–,–
–,10 to 100 nM,–,< 10 nM,CC(=O)N[C@@H](CC(C)C)C(=O)N[C@H](C(=O)N[C@@H](Cc1ccccc1)C(=O)N[C@]1(C)CCCCCCC=CCCC[C@@](C)(C(=O)N[C@@H](C)C(=O)N[C@@H](C)C(=O)N[C@@H](C)C(=O)N[C@@H](C)C(=O)N[C@@H](C)C(=O)N[C@H](C)C(N)=O)NC(=O)[C@H](CC(C)C)NC(=O)C(C)(C)NC(=O)[C@H](C)NC(=O)[C@H](Cc2c[nH]c3ccccc23)NC(=O)[C@H](Cc2ccc(O)cc2)NC(=O)[C@H](CCC(=O)O)NC1=O)[C@@H](C)O [compound 609] (Ac-LTF[R8]EYWA[Aib]L[S5]AAAAA[dA]-NH2; staple 4-11),–,–
10 to 100 nM,10 to 100 nM,10 to 100 nM,< 10 nM,CC(=O)N[C@@H](CC(C)C)C(=O)N[C@H](C(=O)N[C@@H](Cc1ccccc1)C(=O)N[C@]1(C)CCCCCCC=CCCC[C@@](C)(C(=O)N[C@@H](CO)C(=O)N[C@@H](C)C(=O)N[C@@H](Cc2ccccc2)C(N)=O)NC(=O)[C@H](CC2CCC2)NC(=O)[C@H](CCC(N)=O)NC(=O)[C@H](C)NC(=O)[C@H](Cc2c[nH]c3ccccc23)NC(=O)[C@H](Cc2ccc(O)cc2)NC(=O)[C@H](CCC(=O)O)NC1=O)[C@@H](C)O [compound 256] (Ac-LTF[R8]EYWAQ[Cba][S5]SAF-NH2; staple 4-11),–,–
100 to 1000 nM,10 to 100 nM,100 to 1000 nM,10 to 100 nM,CC(=O)N[C@@H](Cc1ccccc1)C(=O)N[C@]1(C)CCCCCCC=CCCC[C@@](C)(C(=O)N[C@@H](C)C(=O)N[C@@H](C)C(=O)N[C@H](C(N)=O)C2CCCCC2)NC(=O)[C@H](CC(C)C)NC(=O)C2(CC2)NC(=O)[C@H](CCC(=O)O)NC(=O)[C@H](Cc2c[nH]c3ccccc23)NC(=O)[C@H](Cc2ccc(O)cc2)NC(=O)[C@H](C)NC1=O [compound 20] (Ac-F[R8]AYWE[Ac3c]L[S5]AA[Chg]-NH2; staple 2-9),–,–
100 to 1000 nM,10 to 100 nM,< 10 nM,< 10 nM,"CC(=O)N[C@@H](CC(C)C)C(=O)N[C@H](C(=O)N[C@@H](Cc1ccccc1)C(=O)N[C@]1(C)CCCCCCC=CCCC[C@@](C)(C(=O)N[C@@H](C)C(=O)N[C@@H](C)C(=O)N[C@H](C(=O)N[C@H](C)C(N)=O)C(C)C)NC(=O)[C@H](CC(C)C)NC(=O)[C@H](CCC(N)=O)NC(=O)[C@H](C)NC(=O)[C@H](Cc2c[nH]c3ccccc23)NC(=O)[C@H](Cc2ccc(O)cc2)NC(=O)[C@H](C)NC1=O)[C@@H](C)O (single isomer, unassigned) [compound 213]",–,–

Structure (SMILES),IC50 (MDMX),Ki (MDMX; read-out: Ki (MDMX)),IC50 (MDM2),Ki (MDM2; read-out: Ki (MDM2)),Ki (MDMX; Ki (MDMX)),Ki (MDM2; Ki (MDM2))
CC(=O)N[C@@H](Cc1ccccc1)C(=O)N[C@]1(C)CCCCCCC=CCCC[C@@](C)(C(=O)N[C@@H](C)C(=O)N[C@@H](C)C(=O)N[C@@H](C)C(=O)N[C@@H](C)C(=O)N[C@@H](C)C(=O)N[C@@H](C)C(=O)N[C@H](C)C(N)=O)NC(=O)[C@H](CC(C)C)NC(=O)[C@H](C)NC(=O)[C@H](CCC(=O)O)NC(=O)[C@H](Cc2c[nH]c3cc(Cl)ccc23)NC(=O)[C@H](Cc2ccc(O)cc2)NC(=O)[C@H](C)NC1=O [compound 339] (Ac-F[R8]AY[Trp(6-Cl)]EAL[S5]AAAAAA[dA]-NH2; staple 2-9),100 to 1000 nM,10 to 100 nM,< 10 nM,< 10 nM,–,–

# From patent publication US8927500B2, “Peptidomimetic macrocycles” (Aileron Therapeutics, Inc., priority 2012, dated 2015)
